Reference: patent EP2711366A1, “Cationic triphenylamine derivatives activable by visible and Infra Red light for inducing and imaging apoptosis in cancer cells” (Institut Curie, priority 2012, dated 2014)
Read-outs that look alike come from different tables or passages of the source. Numbered stars: 1 amine (or outer) side, 2 acyl side, 3 side chain; on linkers, the order of the positions; unused ones are H or OH. Bridge positions count the residues as written; N and C are the ends. Square brackets hold non-standard residues; d marks the D form. Peptide text beside a SMILES is read from it. I, II: the chains in the order shown. Actinocin(9to1) = Cc1c2oc3c(C)ccc(C(=O)[*:1])c3nc-2c(C(=O)[*:2])c(N)c1=O; NMeV = CN[C@H](C(=O)O)C(C)C; Sar = CNCC(=O)O

Columns and labels:
[1] = 532 or 665-nm line laser sources; cited from earlier work
[2] = Dark toxicity (MTT assay, without illumination); assay type: cell-based; settings: human; MCF-7 cells, tested in dark; read-out: TC50 (toxicity concentration 50%), dark toxicity
Description: (§1) Different experiments were conducted and described below: • MCF7 cells were treated with 2µM of TP2Py or TP3Bzim and exposed to illumination (Fig.9A); • HeLa cells were treated with 2µM of TP2Py or TP3Bzim and exposed to illumination (Fig.9B); • MCF7 cells were treated with TP2Py, 40 min illumination (black circles) or without illumination (white circles) (Fig.9C) • HeLa cells were treated with TP2Py [30 min illumination (black circles) or without illumination (white circles)] or TP3Bzim [15 min illumination (black triangles) or without illumination (white triangles)]
(§2) For each experiment, the source of excitation was a Mercury lamp (130W; 380-600nm) with an excitation filter centered at 452nm (± 45 nm), irradiance, 60mW/cm^2.
(§3) First, the experiment was calibrated by determining the time of illumination exposure which leads to the toxicity 50%, for a given concentration of TPA (2 µM) and for an irradiance of 60mW/cm^2. […] This characteristic time was then used for the plots shown in Fig. 9C and 9D which represent the cell viability as a function of TPA concentration (in HeLa and MCF-7 cells, respectively).

[3] = tested on: living MCF-7 cells; assay: One-photon confocal fluorescence microscopy, photo-induced nuclear translocation and membrane blebbing; assay type: cell-based; settings: 2µM, 2 hours, confocal, λexc 458 nm (Fig. 5)
Description: One-photon epifluorescence and confocal images were obtained using a SP2 confocal microscope (Leica MicroSystem) equipped with an incubation chamber (37°C, CO2 5%). Excitation and emission filters for epifluorescence were 450-490 nm and 515-700 nm, respectively. A continuous laser line (458 nm) was used for excitation in the confocal mode.
The photo-induced nuclear translocation and membrane blebbing were next assessed using confocal fluorescence microscopy [λexc = 458 nm; emission slit settings: 560-720nm and 530-690nm for TP2Py and TP3Bzim, respectively] under experimental conditions similar to those described in experiment 1 for epifluorescence experiments. The corresponding transmission images illustrating the concomitant membrane blebbing are shown below the confocal fluorescence images. Living MCF7 cells were incubated with 2µM TP3Bzim or TP2Py for 2 hours before observation. As shown in Fig. 5A (TP2Py) and in Fig. 5B (TP3BZim), the results obtained with confocal imaging were similar to those obtained with epifluorescence imaging (experiment 1), with however, some discrepancies in the time courses of event appearance, most likely due to the power of the excitation source which is different between epifluorescence and confocal experiments (see below). […] Based on both criteria (re-localization of the fluorescence signal and the formation of blebs), the deduced fluences were 22 and 40 J/cm^2 for TP2Py and TP3Bzim, respectively. […]
The TP2Py compound at a concentration of 2 µM was first incubated with living MCF-7 cells for 2 hours and then observed with confocal microscope with varying illumination power of the laser source [λ=458 nm; emission slit setting: 560-720 nm]. […] For each condition, the fluorescence intensity in ROIs corresponding to the nucleus was plotted as a function of time (the initial time value, t = 0, represents the first observation) (FIG.7C). Using integration time based on tmax values, light dose values, determined from experiments performed at irradiance of 5.6 or 30 mW/cm^2, were consistent (27.6 and 27 J/cm^2 respectively). These values are in accordance with the above-mentioned value for TP2Py (fluence, 22 J/cm^2 in Fig. 5).
Living MCF-7 cells were treated with varying concentrations of TP2Py for two hours (2µM; 0.2µM and 0.02µM) and observed with a confocal microscope [λexc = 458nm; irradiance 30mW/cm^2, emission slit setting: 560-720nm.] (FIG 8A: 2µM; FIG 8B: 0.2µM; FIGBC: 0.02µM).

[4] = tested on: HeLa cells; assay: Cytophototoxicity by MTT assay under illumination; assay type: cell-based; settings: irradiance 60mW/cm^2
Description: as §1, §2, §3

[5] = tested on: HeLa cells
Description: as §1, §2, §3

[6] = tested on: DNA; settings: b156 attributes 634 nm to DNA-bound TP2Py in vitro (Allains et al. 2007); cited from earlier work
[7] = tested on: MCF-7 cells; assay: FITC-conjugated Annexin V staining, flow cytometric analysis (apoptosis); assay type: cell-based; settings: proapoptotic controls, no illumination; ActD 1µg/mL; CPT 10µM for 2.5 hours
Description: MCF-7 cells were plated in 12-well plates (2.10^5 cells/well) and incubated with 2µM of TP2Py for 2h at 37°C. Under specific conditions (see Fig. 12), cells were further incubated with NAC (1mM) for 30 min, Bapta-AM (20µM) for 3h, or CsA (10µM) for 1h at 37°C. After a time illumination of either 30 or 60 min at […] (Mercury lamp (130W; 380-600nm) + excitation filter centered at 452nm (± 45nm)), cells were gently scraped and pooled with medium floating cells. Cells were individualized in PBS-EDTA (10mM) and stained as described by the manufacturer (Roche, Germany). Briefly, the cell pellet was re-suspended in 500µl Annexin V-HEPES solution (10 mM HEPES-NaOH, pH 7.4, 140mM NaCl, 5mM CaCl2) and incubated on ice for 30 min in the dark. Cells were then washed in ice-cold HEPES buffer before analysis. Fluorescence signals of fluorescently labelled (FITC) Annexin V and TP2Py were measured by a FACSCalibur flow cytometer (Becton-Dickinson, Sunnyvale, CA, USA) using FL1 and FL2 detectors, respectively.
Different experiments are summarized below: • MCF-7 cells treated with 2µM TP2Py for 2 hours and then stained with FITC-conjugated Annexin V immediately (Fig.12A) without light exposure; • MCF-7 cells treated with 2µM TP2Py for 2 hours and then stained with FITC-conjugated Annexin V after a time illumination (Exc, 452 nm) of 30 min (Fig.12B); • MCF-7 cells treated with 2µM TP2Py for 2 hours and then stained with FITC-conjugated Annexin V after a time illumination (Exc, 452 nm) of 60 min (Fig.12C); • control MCF-7 cells treated with DMSO (1%) only and illuminated for 30 min before Annexin V staining (Fig.12D); • control MCF-7 cells treated with 1µg/mL actinomycin D (ActD), no illumination before Annexin V staining (Fig.12E); • control MCF-7 cells treated with camptothecin (CPT, 10µM)) (Fig.12F) for 2.5 hours, no illumination before Annexin V staining; • MCF-7 cells treated during 2 hours with 2µM TP2Py and 10µM cyclosporine A (CsA) and illuminated for 30 min before Annexin V staining (Fig.12G); • MCF-7 cells treated during 2 hours with 2µM TP2Py and 1 mM N-Acetyl cysteine (NAC) and illuminated for 30 min before Annexin V staining (Fig.12H); and • MCF-7 cells treated during 2 hours with 2µM TP2Py and 20µM Bapta-am (Fig.12I) and illuminated for 30 min before Annexin V staining.
The horizontal (FL1-H) and vertical (FL2-H) axes correspond to the fluorescence signal of Annexin V and TP2Py, respectively. The percentage of population with a high mean fluorescence signal is indicated in the corresponding quadrant (top right or bottom right in the presence or absence of TP2Py, respectively).

[8] = cited from earlier work
[9] = in water up to 10 µM; cited from earlier work
[10] = at 630 nm; cited from earlier work

## CN(C)c1ccc(C(=C2C=CC(=[N+](C)C)C=C2)c2ccc(N(C)C)cc2)cc1 [CV, crystal violet]
[1]
  total fluence or light dose: 1.7 J/cm^2

## CN(C)c1ccc2nc3ccc(=[N+](C)C)cc-3sc2c1 [MB, methylene blue]
[1]
  total fluence or light dose: 1.7 J/cm^2

## CC(=O)Oc1c(I)cc2c(c1I)Oc1c(cc(I)c(OC(C)=O)c1I)C21OC(=O)c2c(Cl)c(Cl)c(Cl)c(Cl)c21 [RBA, Rose Bengal acetate]
[1]
  total fluence or light dose: 1.6 J/cm^2

## Cn1c(/C=C/c2ccc(N(c3ccc(/C=C/c4n(C)c5ccccc5[n+]4C)cc3)c3ccc(/C=C/c4n(C)c5ccccc5[n+]4C)cc3)cc2)[n+](C)c2ccccc21 [TP3Bzim]
[2]
  CC50: > 30 µM
[3]
  deduced fluence (re-localization of the fluorescence signal and formation of blebs): 40 J/cm^2
[4]; Mercury lamp, filter 452nm
  illumination time required for the same TC50 under illumination: 15 min
[4]
  corresponding light dose: 54 J/cm^2
[5]
  dark toxicity (concentration below which negligible): ≥ 50 µM
[6]
  λmax,emission: 572 nm

## Cn1c(/C=C/c2ccc(N(c3ccccc3)c3ccc(/C=C/c4n(C)c5ccccc5[n+]4C)cc3)cc2)[n+](C)c2ccccc21 [Tp2Bzim]
[2]
  CC50: 10 µM

## C[n+]1ccccc1/C=C/c1ccc(N(c2ccccc2)c2ccc(/C=C/c3cccc[n+]3C)cc2)cc1 [Tp2Pyo]
[2]
  CC50: 20 µM

## Cc1c2oc3c(C)ccc(C(=O)N[C@@H]4C(=O)N[C@H](C(C)C)C(=O)N5CCC[C@H]5C(=O)N(C)CC(=O)N(C)[C@@H](C(C)C)C(=O)O[C@@H]4C)c3nc-2c(C(=O)N[C@@H]2C(=O)N[C@H](C(C)C)C(=O)N3CCC[C@H]3C(=O)N(C)CC(=O)N(C)[C@@H](C(C)C)C(=O)O[C@@H]2C)c(N)c1=O [actinomycin D, reference compound] (I: T[dV]P[Sar][NMeV] / II: T[dV]P[Sar][NMeV]; ester I:1-I:C, II:1-II:C; linker I:N-II:N via Actinocin(9to1))
[7]
  HMFI population (Annexin V positive, TP2Py negative): 34%

## CC[C@@]1(O)C(=O)OCc2c1cc1n(c2=O)Cc2cc3ccccc3nc2-1 [camptothecin, reference compound]
[7]
  HMFI population (Annexin V positive, TP2Py negative): 37%

## C=Cc1c(C)c2cc3nc(c(CC(=O)O)c4[nH]c(cc5nc(cc1[nH]2)C(C)=C5CC)c(C)c4C(=O)O)[C@@H](CCC(=O)O)[C@@H]3C [chlorin e6]
[8]; at 800 nm
  two-photon cross-section: 29 GM
[9]
  quantum yield: 0.008-0.01

## Photofrin®
[10]
  extinction coefficient: 3200 M⁻¹ cm⁻¹
[8]; at 800 nm
  two-photon cross-section: 10 GM
[8]; at 900 nm
  two-photon cross-section: 5 GM
